Laboratory results taken from ChEMBL document CHEMBL6074632, “Next-generation EGFR tyrosine kinase inhibitors to overcome C797S mutation in non-small cell lung cancer (2019-2024)” (RSC Med Chem, 2024).
pIC50: −log10 of the molar value. One block for each compound: values may come before it.

Columns and labels:
[1] = Antiproliferative activity against human NCI-H1975 cells harboring EGFR L858R/T790M double mutant assessed as inhibition of cell growth incubated for 72 hrs by CellTiter-Glo assay; format: functional, cell-based; details: NCI-H1975, 72 h
[2] = Oral bioavailability in rat; details: in vivo
[3] = target: Epidermal growth factor receptor (Homo sapiens, UniProt P00533, C797S/L858R/T790M); assay: Inhibition of EGFR L858R/T790M/C797S mutant (unknown origin)
[4] = Antiproliferative activity against human NCI-H1975 cells harboring EGFR L858R/T790M/C797S […] mutant assessed as inhibition of cell growth; format: functional, cell-based
[5] = target: Epidermal growth factor receptor (Homo sapiens, UniProt P00533, C797S/EX19DEL/T790M); assay: Inhibition of EGFR C797S/T790M/Del19 mutant (unknown origin)
[6] = target: Epidermal growth factor receptor (Homo sapiens, UniProt P00533); assay: Inhibition of wild type EGFR (unknown origin)
NCI-H1975 [7] = assay: Antitumor activity against human NCI-H1975 cells xenografted in mouse model assessed as tumor growth inhibition at 80 mg/kg, po relative to control; format: functional; details: read-out: TGI
[8] = PROTAC activity at CRBN/EGFR L858R/T790M double mutant in human HCC827 cells assessed as induction of EGFR degradation; format: cell-based
BaF3 [9] = assay: Antiproliferative activity against mouse BaF3 cells harboring EGFR C797S/T790M/del19 mutant assessed as growth inhibition incubated for 72 hrs by CellTiter-Glo assay; format: functional, cell-based; details: BaF3, 72 h
BaF3 [10] = assay: Antiproliferative activity against mouse BaF3 cells harboring EGFR L858R/T790M/C797S mutant assessed as growth inhibition incubated for 72 hrs by CellTiter-Glo assay; format: functional, cell-based; details: BaF3, 72 h
[11] = Inhibition of EGFR L858R/T790M double mutant (unknown origin); set-up: species or system Homo sapiens
[12] = Intrinsic clearance in human liver microsomes; format: ADME, Microsome
[13] = Intrinsic clearance in human hepatocytes; format: ADME, cell-based, Hepatocyte
[14] = Intrinsic clearance in rat liver microsomes; format: ADME, Microsome
[15] = target: von Hippel-Lindau disease tumor suppressor/Epidermal growth factor receptor (Homo sapiens, UniProt P00533+P40337, L858R); assay: PROTAC activity at VHL/EGFR L858R mutant in human NCI-H3255 cells assessed as induction of EGFR degradation incubated for 24 hrs by immunoblotting analysis; format: cell-based
[16] = Antiproliferative activity against mouse BaF3 cells harboring EGFR L858R/T790M double mutant assessed as inhibition of cell growth
NCI-H1975 [17] = assay: Antitumor activity against human NCI-H1975 cells xenografted in mouse model assessed as tumor growth inhibition at 40 mg/kg, po relative to control; format: functional; details: read-out: TGI

Chain of Epidermal growth factor receptor (Homo sapiens, UniProt P00533, C797S/EX19DEL/T790M) (P00533 whole entry, looked up, stated change not applied): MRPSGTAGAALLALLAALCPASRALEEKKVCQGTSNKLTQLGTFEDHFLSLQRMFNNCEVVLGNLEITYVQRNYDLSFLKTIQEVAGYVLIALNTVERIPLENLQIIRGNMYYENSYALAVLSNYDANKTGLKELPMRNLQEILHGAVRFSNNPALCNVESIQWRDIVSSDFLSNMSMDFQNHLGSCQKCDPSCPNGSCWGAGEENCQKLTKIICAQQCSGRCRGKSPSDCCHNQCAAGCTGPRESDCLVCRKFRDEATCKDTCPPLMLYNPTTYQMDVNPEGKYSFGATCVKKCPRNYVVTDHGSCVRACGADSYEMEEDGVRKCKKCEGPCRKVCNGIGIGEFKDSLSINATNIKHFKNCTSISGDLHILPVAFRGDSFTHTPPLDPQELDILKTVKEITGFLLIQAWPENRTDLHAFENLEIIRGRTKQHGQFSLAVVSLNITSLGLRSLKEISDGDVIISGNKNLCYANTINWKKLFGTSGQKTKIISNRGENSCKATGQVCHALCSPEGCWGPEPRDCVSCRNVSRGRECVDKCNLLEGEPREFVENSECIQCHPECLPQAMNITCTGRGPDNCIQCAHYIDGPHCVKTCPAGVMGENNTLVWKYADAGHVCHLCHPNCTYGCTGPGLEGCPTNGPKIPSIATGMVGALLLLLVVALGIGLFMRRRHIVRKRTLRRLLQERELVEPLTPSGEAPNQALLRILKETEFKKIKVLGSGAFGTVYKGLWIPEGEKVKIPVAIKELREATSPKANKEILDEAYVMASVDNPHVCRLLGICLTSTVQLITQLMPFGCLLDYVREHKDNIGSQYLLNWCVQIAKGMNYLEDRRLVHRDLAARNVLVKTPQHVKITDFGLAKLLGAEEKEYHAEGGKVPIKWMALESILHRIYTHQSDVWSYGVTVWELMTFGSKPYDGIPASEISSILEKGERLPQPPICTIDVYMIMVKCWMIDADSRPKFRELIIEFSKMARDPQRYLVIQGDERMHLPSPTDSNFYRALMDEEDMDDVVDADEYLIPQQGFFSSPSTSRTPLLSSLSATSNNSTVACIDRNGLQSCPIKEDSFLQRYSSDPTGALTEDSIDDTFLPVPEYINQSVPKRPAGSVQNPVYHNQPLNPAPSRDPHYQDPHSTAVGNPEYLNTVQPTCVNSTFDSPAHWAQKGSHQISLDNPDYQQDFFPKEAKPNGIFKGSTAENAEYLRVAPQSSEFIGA
Chain of Epidermal growth factor receptor (Homo sapiens, UniProt P00533) (P00533 whole entry): as the sequence (P00533 whole entry, looked up, stated change not applied) above
Chain of Epidermal growth factor receptor (Homo sapiens, UniProt P00533, C797S/L858R/T790M) (P00533 25-1210 T790M/C797S/L858R limits assumed): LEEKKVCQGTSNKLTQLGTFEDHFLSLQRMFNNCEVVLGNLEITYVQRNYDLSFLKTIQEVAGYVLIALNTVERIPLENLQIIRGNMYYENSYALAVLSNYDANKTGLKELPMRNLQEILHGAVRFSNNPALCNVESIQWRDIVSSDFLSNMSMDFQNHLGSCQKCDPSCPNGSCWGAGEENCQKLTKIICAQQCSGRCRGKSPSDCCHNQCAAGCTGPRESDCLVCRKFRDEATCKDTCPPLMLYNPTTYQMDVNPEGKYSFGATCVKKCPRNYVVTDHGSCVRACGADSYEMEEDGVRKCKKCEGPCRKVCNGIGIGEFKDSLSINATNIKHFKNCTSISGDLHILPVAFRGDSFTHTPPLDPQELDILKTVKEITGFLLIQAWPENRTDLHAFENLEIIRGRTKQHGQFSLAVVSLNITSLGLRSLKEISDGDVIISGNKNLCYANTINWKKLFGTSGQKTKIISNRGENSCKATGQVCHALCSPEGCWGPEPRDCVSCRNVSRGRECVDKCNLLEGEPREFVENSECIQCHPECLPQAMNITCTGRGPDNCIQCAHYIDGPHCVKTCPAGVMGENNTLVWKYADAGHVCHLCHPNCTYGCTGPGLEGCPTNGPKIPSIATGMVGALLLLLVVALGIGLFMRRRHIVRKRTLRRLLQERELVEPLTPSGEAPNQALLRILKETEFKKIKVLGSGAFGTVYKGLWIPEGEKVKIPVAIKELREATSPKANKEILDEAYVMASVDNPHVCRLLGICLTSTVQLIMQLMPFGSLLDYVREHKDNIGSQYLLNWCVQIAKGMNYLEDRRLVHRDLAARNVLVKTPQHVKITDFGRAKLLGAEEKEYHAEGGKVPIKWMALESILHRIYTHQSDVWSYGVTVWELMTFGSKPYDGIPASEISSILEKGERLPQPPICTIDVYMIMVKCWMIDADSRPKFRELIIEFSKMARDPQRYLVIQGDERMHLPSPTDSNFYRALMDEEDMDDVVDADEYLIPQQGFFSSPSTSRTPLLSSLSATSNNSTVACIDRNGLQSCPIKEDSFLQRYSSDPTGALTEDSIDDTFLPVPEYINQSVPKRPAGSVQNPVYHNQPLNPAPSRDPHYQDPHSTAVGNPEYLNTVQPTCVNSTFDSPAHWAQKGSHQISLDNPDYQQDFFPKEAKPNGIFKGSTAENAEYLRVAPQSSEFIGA
Chain of von Hippel-Lindau disease tumor suppressor/Epidermal growth factor receptor (P00533 25-1210 L858R limits assumed, stated change not applied): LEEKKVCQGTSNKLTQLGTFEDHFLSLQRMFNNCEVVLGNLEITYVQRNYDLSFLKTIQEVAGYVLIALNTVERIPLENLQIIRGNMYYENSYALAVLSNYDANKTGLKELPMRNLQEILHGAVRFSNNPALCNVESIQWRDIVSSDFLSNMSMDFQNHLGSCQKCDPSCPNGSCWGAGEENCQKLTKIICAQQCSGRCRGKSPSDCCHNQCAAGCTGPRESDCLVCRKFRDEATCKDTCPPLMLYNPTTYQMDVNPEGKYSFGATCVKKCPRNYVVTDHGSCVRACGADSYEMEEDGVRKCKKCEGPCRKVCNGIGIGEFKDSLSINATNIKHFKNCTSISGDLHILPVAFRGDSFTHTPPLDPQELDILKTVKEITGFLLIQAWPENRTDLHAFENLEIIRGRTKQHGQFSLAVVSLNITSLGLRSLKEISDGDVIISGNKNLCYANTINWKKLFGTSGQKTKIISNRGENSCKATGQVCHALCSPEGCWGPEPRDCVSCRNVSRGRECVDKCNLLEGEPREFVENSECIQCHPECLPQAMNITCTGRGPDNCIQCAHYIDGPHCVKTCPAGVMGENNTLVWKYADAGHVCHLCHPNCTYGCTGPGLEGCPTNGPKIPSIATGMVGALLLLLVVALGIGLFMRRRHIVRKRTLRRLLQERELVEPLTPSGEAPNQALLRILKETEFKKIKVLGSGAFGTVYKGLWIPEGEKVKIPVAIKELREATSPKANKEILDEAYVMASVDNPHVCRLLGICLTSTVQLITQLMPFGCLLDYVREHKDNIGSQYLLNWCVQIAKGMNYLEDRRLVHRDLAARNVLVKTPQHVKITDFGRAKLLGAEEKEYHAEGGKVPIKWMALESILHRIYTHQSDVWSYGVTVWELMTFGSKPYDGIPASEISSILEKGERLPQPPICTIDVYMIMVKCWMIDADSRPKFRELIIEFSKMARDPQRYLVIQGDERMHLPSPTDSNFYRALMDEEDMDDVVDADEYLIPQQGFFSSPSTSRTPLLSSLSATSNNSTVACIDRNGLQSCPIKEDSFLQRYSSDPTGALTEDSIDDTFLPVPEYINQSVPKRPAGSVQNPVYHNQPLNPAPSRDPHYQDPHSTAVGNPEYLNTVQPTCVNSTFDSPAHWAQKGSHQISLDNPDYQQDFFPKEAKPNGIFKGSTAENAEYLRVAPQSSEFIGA
Chain of von Hippel-Lindau disease tumor suppressor/Epidermal growth factor receptor (P40337 whole entry, stated change not applied): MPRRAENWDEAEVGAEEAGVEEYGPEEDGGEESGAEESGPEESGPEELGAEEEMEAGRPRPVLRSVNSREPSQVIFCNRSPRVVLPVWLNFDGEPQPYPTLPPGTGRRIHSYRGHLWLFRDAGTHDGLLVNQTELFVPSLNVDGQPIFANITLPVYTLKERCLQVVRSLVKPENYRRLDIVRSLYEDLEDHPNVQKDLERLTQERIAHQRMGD

SMILES: CO[C@@H]1CCN(c2nccc(Nc3cc4c(C(C)C)ccc(N5C[C@H](CS(C)(=O)=O)[C@H]5C)c4cn3)n2)C[C@@H]1F [TIGOZERTINIB]
pIC50 [1]: 8.96
bioavailability [2]: 48%

SMILES: Oc1ccccc1-c1nc(NCN2CCOCC2)c2ccccc2n1
pIC50 [5]: 5.76
pIC50 [6]: 4.43

SMILES: CC(C)c1ccc(N2CC(CS(C)(=O)=O)C2)c2cnc(Nc3ccnc(N4CC[C@@H](O)[C@@](C)(F)C4)n3)cc12
pIC50 [1]: 8.57
bioavailability [2]: 85%

SMILES: Cc1cc(Nc2ncc(Br)c(Nc3ccccc3S(=O)(=O)C3CC3)n2)ccc1N1CCN(C)CC1
inhibition in vivo at 80 mg/kg (NCI-H1975 [7]): 73.2%

SMILES: COc1cc2ncnc(Nc3ccc(F)c(Cl)c3)c2cc1OCCCN1CCN(CCC(=O)NCCCCCCCCOc2cccc3c2C(=O)N(C2CCC(=O)NC2=O)C3=O)CC1 (centres undefined)
DC50 [8]: 5 nM

SMILES: CN1CCN(c2ccc(Nc3ncc(Cl)c(Nc4ccccc4P(C)(C)=O)n3)cc2Br)CC1
pIC50 (BaF3 [9]): 7.05
pIC50 (BaF3 [10]): 6.92

SMILES: COc1cc(N2CCN(CCCCCCCC(=O)N[C@H](C(=O)N3C[C@H](O)C[C@H]3C(=O)N[C@@H](C)c3ccc(-c4scnc4C)cc3)C(C)(C)C)CC2)ccc1Nc1ncc(Cl)c(Nc2ccccc2P(C)(C)=O)n1
DC50 [15]: 8 nM

SMILES: COc1cc2c(Nc3ccc(NC(=O)C(c4cc(F)ccc4F)N4Cc5ccccc5C4=O)cc3F)ncnc2cc1OCC1CCN(C)CC1 (centres undefined)
pIC50 [3]: 8.64

SMILES: N#Cc1ccc(O)c(-c2nc(NCc3ncccn3)c3ccccc3n2)c1
pIC50 [4]: 5.92

SMILES: CC(C)c1cnc(N2CC(CS(C)(=O)=O)C2)c2cnc(Nc3ccnc(N4CC[C@@H](O)[C@@](C)(F)C4)n3)cc12
pIC50 [1]: 8.32
bioavailability [2]: 2%

More lines, main results first:

pIC50 [3]: 6.36
SMILES: Oc1ccc(Br)cc1-c1nc(NCc2ncccn2)c2ccccc2n1
pIC50 [4]: 4.90

pIC50 [11]: 10.20
SMILES: CN1CCC(c2ccc(-c3ccc4c(c3)C(=O)N(C(C(=O)Nc3nccs3)c3cc(F)ccc3O)C4)cc2)CC1 (centres undefined)

pIC50 [5]: 8.47
pIC50 [6]: < 4.30
SMILES: Cn1cnc(Nc2nc(-c3ccccc3O)nc3ccccc23)c1

CLint [12]: 7.2 µL/min/mg
CLint [13]: 41 µL/min/1e6 cells
CLint [14]: 43 µL/min/mg
bioavailability [2]: 50%
SMILES: CC(C)c1ccc(N2C[C@H](CS(C)(=O)=O)[C@H]2C)c2cnc(Nc3ccnc(N4CC[C@@H](O)[C@@](C)(F)C4)n3)cc12
pIC50 [1]: 9.00

pIC50 [5]: 8.32
pIC50 [6]: < 4.30
SMILES: Oc1ccccc1-c1nc(NCc2c[nH]cn2)c2ccccc2n1

pIC50 [16]: 7.02
SMILES: O=C1CCC(N2C(=O)c3cccc(NCCOCCOCCOCCN4CCN(c5ccc(-c6ccc7c(c6)C(=O)N(C(C(=O)Nc6nccs6)c6ccccc6)C7)cn5)CC4)c3C2=O)C(=O)N1 (centres undefined)

pIC50 (BaF3 [9]): 7.92
pIC50 (BaF3 [10]): 7.80
pIC50 [3]: 10.05
SMILES: [2H]C([2H])([2H])c1cc(Nc2ncc(Br)c(Nc3ccccc3S(=O)(=O)C3CC3)n2)ccc1N1CCN(C([2H])([2H])[2H])CC1
inhibition in vivo at 40 mg/kg (NCI-H1975 [17]): 75.1%

pIC50 (BaF3 [9]): 7.57
SMILES: COc1cc(N2CCC(N3CCN(C)CC3)CC2)c(C)cc1Nc1ncc(Br)c(Nc2ccc3nccnc3c2P(C)(C)=O)n1

pIC50 [11]: 8.52
SMILES: O=C(Nc1nccs1)C(c1cc(F)ccc1O)N1Cc2ccccc2C1=O (centres undefined)
